The text below walks through data of paper PMC6391970, “Design, Synthesis and Characterization of Covalent KDM5 Inhibitors” (Angewandte Chemie (International Ed. in English), 2018).

Marks after values point to notes of the source that are not given here. Bounds are passed on as bounds.

For one data set, the system named is MDCK cells. To be noted: Previously reported values in MDCK cells, A to B; cited from earlier work.
The test system of data set [1] is KDM5B. Conditions: previously reported value, cited from earlier work.
Another data set addresses KDM5B (NanoLuc-KDM5B) (Homo sapiens, UniProt Q9UGL1). The experiment in a line: NanoBRET cellular target engagement assay in HEK293 cells. (In general: BRET reads energy transfer from a luciferase to a nearby fluorophore.)
The target of data set [2] is T1, KDM5B (Homo sapiens, UniProt Q9UGL1, A373G/DEL102-140/DEL143-371/Q372G).
T1 construct: A KDM5B construct encoding regions Phe26-Ile770 was amplified from an OriGene cDNA clone; 6x-histidine tag (TEV-cleavable) (N, cleaved yes); made in house; host or cells: Sf9 insect cells (baculovirus)
T1 sequence (Q9UGL1 with tags, fused parts or gaps DEL102-140/DEL143-371/Q372G/A373G): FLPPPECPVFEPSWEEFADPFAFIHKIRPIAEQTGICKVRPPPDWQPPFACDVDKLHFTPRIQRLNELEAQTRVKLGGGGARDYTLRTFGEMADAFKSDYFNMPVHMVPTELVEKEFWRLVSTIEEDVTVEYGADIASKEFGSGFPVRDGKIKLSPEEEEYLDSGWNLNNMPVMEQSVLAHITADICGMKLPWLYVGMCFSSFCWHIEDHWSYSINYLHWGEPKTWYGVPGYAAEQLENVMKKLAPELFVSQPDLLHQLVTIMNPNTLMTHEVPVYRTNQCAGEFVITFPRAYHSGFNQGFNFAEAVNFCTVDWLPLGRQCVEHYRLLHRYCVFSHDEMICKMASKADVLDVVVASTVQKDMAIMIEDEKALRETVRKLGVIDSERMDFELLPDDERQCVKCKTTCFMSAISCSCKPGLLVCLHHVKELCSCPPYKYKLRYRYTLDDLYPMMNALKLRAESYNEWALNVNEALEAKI
Nature of the data set: KDM5B 2-OG competition assay (AlphaScreen). The class given is biochemical. To be noted: for IC50: AlphaScreen in vitro activity in KDM5B. As to the method: (§1) KDM alpha screen selectivity
(§2) Inhibition of histone demethylases was assessed using the histone demethylase AlphaScreen assay (Amplified Luminescence Proximity Homogenous Assay) as previously reported.[4] The basis of this assay for lysine demethylases have been widely described.[5] In brief, the assay was performed in 384-well plate format using white proxiplates (PerkinElmer), and transfer of titrations of compounds (100 nl) was performed using an ECHO 550 acoustic dispenser […]
(§3) Tween- 20) containing the appropriate demethylase enzyme (see Supplementary table 1 for final concentrations) was transferred to each well of a 384-well proxiplate with a Multidrop™ Combi Reagent Dispenser, and the enzymes allowed to pre-incubate for 120 minutes with compound (final concentration of DMSO was 1%). After that time, the enzyme reaction was initiated by addition of 5 µl of a substrate mix consisting of Ketoglutarate (2-OG), Ferrous Ammonium Sulphate (FAS), L-Ascorbic Acid (LAA) and biotinylated peptide substrate (see Supporting table X for final assay concentrations) and the reaction incubated for the indicated time at room temperature. Reaction was stopped by the addition of 5 μl of assay buffer containing EDTA (7.5 mM) and NaCl (400 mM). Streptavidin Donor beads (0.08 mg/ml) and Protein-A conjugated acceptor beads (0.08 mg/ml) (AlphaScreen General IgG detection kit was from Perkin Elmer) were pre-incubated for 1 hour with an antibody to the product methyl mark (Supplementary Table 1) and the presence of biotin-H3-product was detected by addition of 5 µl of the pre-incubated AlphaScreen beads (final concentrations of 0.02 mg/ml with respect to acceptor and donor beads). Detection was allowed to proceed for 2 hour at room temperature and the assay plates read in a BMG Labtech Pherastar FS plate reader (excitation, 680 nm; emission, 570 […]
IC50(t) = Ki (1 + K ) . ( η . k .t − 1) (1)
KDM5B 2-OG competition assay
2-OG competition assay were performed as described for the general KDM5B AlphaScreen method above, varying the 2-OG concentrations from a range of 1mM to 0.5 μM. Data were normalized to the no enzyme control and the IC50 determined from the nonlinear regression curve fit using GraphPad Prism 7.

Data set [3] concerns the target T2, KDM5B (Homo sapiens, UniProt Q9UGL1).
T2 sequence (Q9UGL1 26-101 limits assumed): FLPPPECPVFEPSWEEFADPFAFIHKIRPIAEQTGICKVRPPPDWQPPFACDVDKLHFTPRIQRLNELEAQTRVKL
T2 sequence (Q9UGL1 374-770 limits assumed): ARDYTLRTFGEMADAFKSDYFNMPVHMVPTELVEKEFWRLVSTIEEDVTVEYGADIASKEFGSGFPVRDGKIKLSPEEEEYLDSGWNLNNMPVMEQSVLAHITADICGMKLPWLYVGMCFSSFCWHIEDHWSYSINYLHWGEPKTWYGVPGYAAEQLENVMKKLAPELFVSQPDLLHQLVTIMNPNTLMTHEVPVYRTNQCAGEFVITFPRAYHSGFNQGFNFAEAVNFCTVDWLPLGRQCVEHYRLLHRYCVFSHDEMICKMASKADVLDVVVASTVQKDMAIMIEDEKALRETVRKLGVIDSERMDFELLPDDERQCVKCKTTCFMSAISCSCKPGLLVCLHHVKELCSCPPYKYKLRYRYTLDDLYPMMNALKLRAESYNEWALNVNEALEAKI
Nature of the data set: Timecourse KDM5B AlphaScreen inhibition and kinact/Ki calculation. It counts as biochemical. As to the method: These parameters were calculated by using an established method to derive K i and k inact directly from time‐dependant IC50 values (Table S1). […]
as §1, §2
as §3, with “570 nm). Data were normalized to the no enzyme control and the IC50 determined from the nonlinear regression curve fit” for “570”
Timecourse KDM5B inhibition and Kinact/Ki calculations
The timecourse alphascreen assay was performed using the conditions described in the AlphaScreen section for KDM5B but with different pre-incubation times (from 0 to 120 min) for the enzyme with compound. Data were normalized to the no enzyme control and the IC50 for each timepoint was determined from the nonlinear regression curve fit using GraphPad Prism 7. The Ki and kinact were calculated through a least squares fit of the obtained IC50 at the different timepoints into the equation below which was derived by Krippendorff et al.[6] S is the H3K4me3 peptide substrate concentration of 0.1 µM and KM is the Michaelis-Menten constant for the substrate of 0.5 µM. XLFit software was used to compute the values of Ki and kinact. […]

The nature of the next data set: Caco-2 permeability. The class given is in vitro ADME. To be noted: human, Caco-2, Caco‐2 cells, A to B.
Data set [4] concerns the target T1, KDM5B. The experiment in a line: Covalent binding by MS (RapidFire intact mass, peptide mapping), KDM5B.

Chain of KDM5B (NanoLuc-KDM5B) (Q9UGL1 whole entry): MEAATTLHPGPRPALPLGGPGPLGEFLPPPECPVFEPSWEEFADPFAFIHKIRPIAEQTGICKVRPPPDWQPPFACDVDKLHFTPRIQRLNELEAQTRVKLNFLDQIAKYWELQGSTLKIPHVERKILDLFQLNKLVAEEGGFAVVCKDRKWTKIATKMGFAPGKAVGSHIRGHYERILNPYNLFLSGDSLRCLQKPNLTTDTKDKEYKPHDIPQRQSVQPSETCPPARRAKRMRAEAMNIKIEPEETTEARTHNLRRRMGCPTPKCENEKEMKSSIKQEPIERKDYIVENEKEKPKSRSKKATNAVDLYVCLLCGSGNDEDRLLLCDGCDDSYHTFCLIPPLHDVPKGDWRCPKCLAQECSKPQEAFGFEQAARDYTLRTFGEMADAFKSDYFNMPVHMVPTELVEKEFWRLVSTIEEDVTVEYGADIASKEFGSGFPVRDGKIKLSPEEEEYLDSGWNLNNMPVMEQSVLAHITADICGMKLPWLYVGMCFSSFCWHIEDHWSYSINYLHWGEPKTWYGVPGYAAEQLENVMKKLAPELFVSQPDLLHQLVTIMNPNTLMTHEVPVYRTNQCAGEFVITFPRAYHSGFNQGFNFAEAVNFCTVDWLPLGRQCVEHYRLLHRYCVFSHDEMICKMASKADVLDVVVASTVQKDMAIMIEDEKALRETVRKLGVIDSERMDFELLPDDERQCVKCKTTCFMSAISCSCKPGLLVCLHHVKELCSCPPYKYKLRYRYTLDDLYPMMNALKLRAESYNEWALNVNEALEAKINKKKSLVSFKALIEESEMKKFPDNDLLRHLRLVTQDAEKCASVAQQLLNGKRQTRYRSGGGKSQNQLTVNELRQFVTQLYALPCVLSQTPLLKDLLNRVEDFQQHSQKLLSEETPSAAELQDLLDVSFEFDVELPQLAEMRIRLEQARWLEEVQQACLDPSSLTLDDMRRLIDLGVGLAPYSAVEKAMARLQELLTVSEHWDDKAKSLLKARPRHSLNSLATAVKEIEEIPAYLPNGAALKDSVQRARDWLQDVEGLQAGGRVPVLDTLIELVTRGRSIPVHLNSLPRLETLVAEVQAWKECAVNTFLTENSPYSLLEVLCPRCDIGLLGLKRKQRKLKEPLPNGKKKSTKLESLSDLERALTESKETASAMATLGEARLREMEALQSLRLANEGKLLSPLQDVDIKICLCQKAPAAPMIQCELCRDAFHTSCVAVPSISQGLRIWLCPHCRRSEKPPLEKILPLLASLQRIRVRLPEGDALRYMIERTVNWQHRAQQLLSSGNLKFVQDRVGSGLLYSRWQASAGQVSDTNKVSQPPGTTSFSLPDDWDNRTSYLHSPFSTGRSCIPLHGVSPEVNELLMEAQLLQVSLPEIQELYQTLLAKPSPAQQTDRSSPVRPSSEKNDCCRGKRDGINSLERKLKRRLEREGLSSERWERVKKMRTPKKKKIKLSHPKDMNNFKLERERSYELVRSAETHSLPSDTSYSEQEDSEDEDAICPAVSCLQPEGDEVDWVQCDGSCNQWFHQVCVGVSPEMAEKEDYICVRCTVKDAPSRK

As usually defined, the IC50 is the point on the concentration scale where inhibition reaches its midpoint. As for `CC(C)c1c(-c2ccccc2)[nH]c2c(C#N)cnn2c1=O` [CPI‐455], the P app with MDCK cells was 17.2^[c] 10^−6 cm s^−1. In addition, the “2‐OG shift” value in the data set on KDM5B [1] is 2.0^[c]. The IC50 with KDM5B [1] (read-out: IC50 (2‐OG 1 μM), KDM5B) is 3 nM; at KDM5B (NanoLuc-KDM5B), 400 nM.
As to `CC(C)c1c(-c2cnn(C(C)(C)C)c2)[nH]c2c(C#N)cnn2c1=O` [Compound 1, reference compound], the “drop in potency with 2-OG concentration” value at KDM5B [2] (2-OG from 0.5 μM up to 1000 μM) was found to be 8 fold. Moreover, the IC50 on KDM5B [2] (IC50 (2‐OG 1 μM), 2-OG 1 μM) came to 15 nM; at KDM5B [2] (IC50 (2‐OG 1 mM), 2-OG 1 mM), 377 nM; against KDM5B (NanoLuc-KDM5B) it was 340 nM. The P app in the data set with MDCK cells was 7.5^[c] 10^−6 cm s^−1.
The term Ki denotes the equilibrium dissociation constant of an inhibitor or competing ligand from its target. Broadly, the kinact is the maximal first-order rate at which the target is inactivated. A word on the kinact/KI: it is the second-order rate constant of inactivation. The Papp A→B is how fast a substance crosses the layer from the apical side. `C=CC(=O)N1CCN(CCc2cnn(-c3nccc4c(=O)[nH]cnc34)c2)CC1` [Compound 3]: at KDM5B [3], the inhibition constant Ki was 834 ± 79 nM, the “k inact/K i” value was 1400 M⁻¹ s⁻¹ and the kinact was 0.0012 ± 1.3e-05 s⁻¹. Also, the inactivation efficiency (kinact/KI) at KDM5B [3] (Table S1) is 1400 ± 20 M⁻¹ s⁻¹. On KDM5B [2] (IC50 (2‐OG 1 μM), 2-OG 1 μM), this compound displayed an IC50 of 184 nM. In addition, in the data set “Caco-2 permeability”, the apical-to-basolateral permeability (Papp A→B) is less than 1.5 ×10⁻⁶ cm/s. On KDM5B [4] (digestion of protein–inhibitor adduct), the “inhibitor reactive residue in KDM5B (peptide mapping, LCMS/MS)” value is on record as “binding specifically to the desired C480”. Also, the “covalent binding to KDM5B by intact MS” value on KDM5B [4] (protein 1 μM, compound 10 μM, 2 hours, 37 °C) is recorded as “major peak relating to protein–inhibitor adduct”. This compound had an IC50 on KDM5B (NanoLuc-KDM5B) greater than 30000 nM.
